One assay addresses SARS-CoV-1 Mpro (Severe acute respiratory syndrome coronavirus, UniProt P0C6X7). Nature of the assay: biochemical.
For the next assay, the target named is MERS Mpro (Middle East respiratory syndrome-related coronavirus, UniProt K9N7C7). Briefly: biochemical. More on the design: species or system MERS-CoV.
The next assay addresses SARS-CoV-2 Mpro (Severe acute respiratory syndrome coronavirus 2, UniProt P0DTD1). Nature of the assay: SARS-CoV-2 Mpro enzymatic inhibition assay (fluorescence). Type of assay: biochemical. An outline of the steps: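 Recombinant Mpro expressed in E. coli was preincubated 30 min at room temperature with 10-point, 3-fold serially diluted compound in duplicate. Fluorogenic substrate was then added and incubated 60 min at 30° C, and fluorescence read at Ex/Em 340/490 nm. IC50 came from a four-parameter fit of % inhibition.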

In the next assay the target is HCoV-HKU1 Mpro (Human coronavirus HKU1, UniProt P0C6X2). Nature of the assay: HCoV-HKU1 Mpro enzymatic inhibition assay (fluorescence). Type of assay: biochemical. An outline of the steps:
(§1)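 Recombinant Mpro from E. coli was pre-incubated with compound (3-fold, 10-point dilutions, duplicates) for 30 min at room temperature, then fluorogenic peptide substrate was added and fluorescence read at Ex/Em 340/490 nm after 60 min at 30 °C. IC50 came from four-parameter fits of background-corrected inhibition.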

Another assay deals with HCoV-NL63 Mpro (Human coronavirus NL63, UniProt P0C6X5). Nature of the assay: HCoV-NL63 Mpro enzymatic inhibition assay (fluorescence). Type of assay: biochemical. Put shortly:
as §1

For a further assay, the target named is HCoV-229E Mpro (Human coronavirus 229E, UniProt P0C6X1). Briefly: HCoV-229E Mpro enzymatic inhibition assay (fluorescence). It is filed as biochemical.
Sequence of HCoV-229E Mpro (P0C6X1 2966-3267 limits assumed): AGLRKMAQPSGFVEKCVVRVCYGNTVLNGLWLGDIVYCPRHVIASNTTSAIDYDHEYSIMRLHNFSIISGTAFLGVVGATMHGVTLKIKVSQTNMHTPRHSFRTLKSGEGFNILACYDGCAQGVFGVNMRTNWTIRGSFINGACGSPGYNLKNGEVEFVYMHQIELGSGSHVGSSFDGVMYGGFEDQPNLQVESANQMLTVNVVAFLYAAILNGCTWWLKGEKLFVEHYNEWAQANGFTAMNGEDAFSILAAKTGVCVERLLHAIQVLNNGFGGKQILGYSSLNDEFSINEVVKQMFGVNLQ
Another assay concerns the target HCoV-OC43 Mpro (Human coronavirus OC43, UniProt P0C6X6). Briefly: HCoV-OC43 Mpro enzymatic inhibition assay (fluorescence). Type of assay: biochemical. An outline of the steps:
as §1

As a reminder, the IC50 is the concentration needed to halve the response being measured.

Where two headings read alike, the source gives them in different places.

Sequence of HCoV-OC43 Mpro (P0C6X6 3247-3549 limits assumed): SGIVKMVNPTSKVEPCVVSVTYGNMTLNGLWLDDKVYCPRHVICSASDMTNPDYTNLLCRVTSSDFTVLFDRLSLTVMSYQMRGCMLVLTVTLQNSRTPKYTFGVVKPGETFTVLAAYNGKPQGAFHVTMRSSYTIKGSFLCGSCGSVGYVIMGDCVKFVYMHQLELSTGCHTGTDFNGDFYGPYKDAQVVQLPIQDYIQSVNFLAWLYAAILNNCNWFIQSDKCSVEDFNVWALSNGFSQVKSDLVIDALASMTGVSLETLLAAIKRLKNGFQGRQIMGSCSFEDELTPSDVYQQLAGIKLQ
Sequence of HCoV-HKU1 Mpro (P0C6X2 3335-3637 limits assumed): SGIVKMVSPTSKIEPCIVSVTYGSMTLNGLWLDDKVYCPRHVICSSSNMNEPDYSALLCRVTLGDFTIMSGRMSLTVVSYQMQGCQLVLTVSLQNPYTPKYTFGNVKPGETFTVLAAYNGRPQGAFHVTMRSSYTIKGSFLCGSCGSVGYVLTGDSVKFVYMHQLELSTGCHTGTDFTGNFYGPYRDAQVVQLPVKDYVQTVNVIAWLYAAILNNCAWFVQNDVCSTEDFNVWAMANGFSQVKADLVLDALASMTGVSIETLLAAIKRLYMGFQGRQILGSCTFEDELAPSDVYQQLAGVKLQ
Sequence of MERS Mpro (K9N7C7 3248-3553 limits assumed): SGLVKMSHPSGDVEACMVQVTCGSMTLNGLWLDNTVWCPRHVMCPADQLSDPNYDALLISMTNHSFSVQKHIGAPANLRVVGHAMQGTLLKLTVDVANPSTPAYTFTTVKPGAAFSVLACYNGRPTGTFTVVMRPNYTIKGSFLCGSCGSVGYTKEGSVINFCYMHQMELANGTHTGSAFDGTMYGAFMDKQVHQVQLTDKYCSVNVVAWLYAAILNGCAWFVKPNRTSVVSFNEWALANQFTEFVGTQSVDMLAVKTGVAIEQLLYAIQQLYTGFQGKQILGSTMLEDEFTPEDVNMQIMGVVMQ
Sequence of HCoV-NL63 Mpro (P0C6X5 2940-3242 limits assumed): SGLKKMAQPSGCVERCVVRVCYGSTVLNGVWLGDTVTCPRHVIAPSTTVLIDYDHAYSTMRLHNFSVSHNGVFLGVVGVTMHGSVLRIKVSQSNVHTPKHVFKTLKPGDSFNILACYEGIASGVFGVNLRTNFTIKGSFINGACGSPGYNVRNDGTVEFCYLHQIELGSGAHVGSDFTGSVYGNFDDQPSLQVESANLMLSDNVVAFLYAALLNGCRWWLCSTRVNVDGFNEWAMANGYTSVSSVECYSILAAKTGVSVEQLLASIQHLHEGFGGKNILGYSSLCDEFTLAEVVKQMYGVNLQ

Take `O=C[C@H](C[C@@H]1CCNC1=O)NC(=O)[C@@H]1CCCN1C(=O)c1cc2ccccc2[nH]1` [Compound 138]: the half-inhibitory concentration (IC50) against SARS-CoV-1 Mpro turned out to be 0.691 µM; against MERS Mpro, 1.73 µM; on SARS-CoV-2 Mpro (mean, 25 nM protein, 25 μM substrate, 30 min pre-incubation, 60 min at 30° C., read-out: Mpro_SARS-CoV-2 mean IC50), 0.499 µM; at HCoV-HKU1 Mpro, 0.227 µM; at HCoV-NL63 Mpro, 0.417 µM; against HCoV-229E Mpro, 0.208 µM. The same compound showed an IC50 against HCoV-OC43 Mpro of 0.317 µM.
Regarding `COc1cc2cc(C(=O)N3C[C@H]4[C@@H]([C@H]3C(=O)N[C@H](C=O)C[C@@H]3CCNC3=O)C4(C)C)[nH]c2cc1OC` [Compound 114, (1R,2S,5S)-3-(5,6-dimethoxy-1H-Indole-2-carbonyl)-6,6-dimethyl-N—((S)-1-oxo-3-((S)-2-oxopyrrolidin-3-yl)propan-2-yl)-3-azabicyclo[3.1.0]hexane-2-carboxamide], the concentration for half-maximal inhibition (IC50) was found to be 0.149 µM against SARS-CoV-1 Mpro; 0.429 µM against MERS Mpro; 0.0973 µM on SARS-CoV-2 Mpro; 0.0306 µM against HCoV-HKU1 Mpro; 0.0993 µM against HCoV-NL63 Mpro; 0.0562 µM on HCoV-229E Mpro. This compound yielded an IC50 on HCoV-OC43 Mpro of 0.0779 µM.
As to `CCOc1ccc2[nH]c(C(=O)N3C[C@H]4[C@@H]([C@H]3C(=O)N[C@H](C=O)C[C@@H]3CCNC3=O)C4(C)C)cc2c1` [Compound 111, (1R,2S,5S)-3-(5-Ethoxy-1H-indole-2-carbonyl)-6,6-dimethyl-N—((S)-1-oxo-3-((S)-2-oxopyrrolidin-3-yl)propan-2-yl)-3-azabicyclo[3.1.0]hexane-2-carboxamide], the IC50 worked out at 0.119 µM against SARS-CoV-1 Mpro; 0.866 µM against MERS Mpro; 0.0841 µM at SARS-CoV-2 Mpro; 0.0733 µM at HCoV-HKU1 Mpro; 0.135 µM on HCoV-NL63 Mpro; 0.0833 µM against HCoV-229E Mpro. The same compound gave an IC50 against HCoV-OC43 Mpro of 0.169 µM.
As for `N#Cc1ccc2cc(C(=O)N3CC4(CC4)C[C@H]3C(=O)N[C@H](C=O)C[C@@H]3CCNC3=O)[nH]c2c1` [Compound 82, (S)-5-(6-Cyano-1H-indole-2-carbonyl)-N—((S)-1-oxo-3-((S)-2-oxopyrrolidin-3-yl)propan-2-yl)-5-azaspiro[2.4]heptane-6-carboxamide], the IC50 worked out at 0.0351 µM at SARS-CoV-1 Mpro; 0.176 µM against MERS Mpro; 0.0355 µM on SARS-CoV-2 Mpro; 0.0106 µM against HCoV-HKU1 Mpro; 0.0301 µM on HCoV-NL63 Mpro; 0.0261 µM on HCoV-229E Mpro. The compound also registered a half-maximal inhibitory concentration (IC50) on HCoV-OC43 Mpro of 0.0337 µM.
In the case of `O=C1NCC[C@H]1C[C@H](NC(=O)[C@@H]1CC2(CC2)CN1C(=O)c1cc2ccccc2[nH]1)C(=O)c1nc2ccccc2s1` [Compound 127, (S)—N—((S)-1-(benzo[d]thiazol-2-yl)-1-oxo-3-((S)-2-oxopyrrolidin-3-yl)propan-2-yl)-5-(1H-indole-2-carbonyl)-5-azaspiro[2.4]heptane-6-carboxamide], the half-inhibitory concentration (IC50) on SARS-CoV-1 Mpro stood at 0.6 µM; against MERS Mpro, 0.409 µM; on SARS-CoV-2 Mpro, 0.261 µM; against HCoV-HKU1 Mpro, 0.372 µM; on HCoV-NL63 Mpro it was 0.195 µM; at HCoV-229E Mpro it was 0.0951 µM. This compound also yielded an IC50 on HCoV-OC43 Mpro of 0.507 µM.
With `CC1(C)[C@@H]2[C@@H](C(=O)N[C@H](C#N)C[C@@H]3CCNC3=O)N(C(=O)C3(c4ccccc4)CC3)C[C@@H]21` [Compound 135, (1R,2S,5S)—N—((S)-1-Cyano-2-((S)-2-oxopyrrolidin-3-yl)ethyl)-6,6-dimethyl-3-(1-phenylcyclopropanecarbonyl)-3-azabicyclo[3.1.0]hexane-2-carboxamide], the IC50 at SARS-CoV-1 Mpro was determined as 0.571 µM; against MERS Mpro, 4.54 µM; against SARS-CoV-2 Mpro it was 0.468 µM; on HCoV-HKU1 Mpro it was 0.766 µM; against HCoV-NL63 Mpro it was 11.8 µM; against HCoV-229E Mpro it was 3.46 µM. At HCoV-OC43 Mpro, this compound yielded an IC50 of 1.87 µM.
As for `CC1(C)[C@@H]2[C@@H](C(=O)N[C@H](C=O)C[C@@H]3CCNC3=O)N(C(=O)c3cc4cc5c(cc4[nH]3)OCO5)C[C@@H]21` [Compound 27, (1R,2S,5S)-3-(5H-[1,3]dioxolo[4,5-f]indole-6-carbonyl)-6,6-dimethyl-N—((S)-1-oxo-3-((S)-2-oxopyrrolidin-3-yl)propan-2-yl)-3-azabicyclo[3.1.0]hexane-2-carboxamide], the 50% inhibitory concentration (IC50) is 0.0528 µM at SARS-CoV-1 Mpro; 0.466 µM on MERS Mpro; 0.0172 µM at SARS-CoV-2 Mpro; 0.049 µM on HCoV-HKU1 Mpro; 0.0828 µM against HCoV-NL63 Mpro; 0.0547 µM against HCoV-229E Mpro. This compound gave an IC50 at HCoV-OC43 Mpro of 0.0892 µM.
In the case of `CC1(C)[C@@H]2[C@@H](C(=O)N[C@H](C=O)C[C@@H]3CCNC3=O)N(C(=O)C3(c4ccccc4)CCCC3)C[C@@H]21` [Compound 17, (1R,2S,5S)-6,6-dimethyl-N—((S)-1-oxo-3-((S)-2-oxopyrrolidin-3-yl)propan-2-yl)-3-(1-phenylcyclopentanecarbonyl)-3-azabicyclo[3.1.0]hexane-2-carboxamide], the concentration for half-maximal inhibition (IC50) against SARS-CoV-1 Mpro worked out at 0.0278 µM; at MERS Mpro it was 0.276 µM; against SARS-CoV-2 Mpro, 0.0152 µM; at HCoV-HKU1 Mpro, 0.0237 µM; against HCoV-NL63 Mpro, 0.18 µM; on HCoV-229E Mpro, 0.0484 µM. Besides, 0.0598 µM corresponded to half-maximal inhibition on HCoV-OC43 Mpro (IC50).
Consider `O=C[C@H](C[C@@H]1CCNC1=O)NC(=O)[C@@H]1CC2(CC2)CN1C(=O)CC1CCCCC1` [Compound 126, (S)-5-(2-Cyclohexylacetyl)-N—((S)-1-oxo-3-((S)-2-oxopyrrolidin-3-yl)propan-2-yl)-5-azaspiro[2.4]heptane-6-carboxamide], for which the half-maximal inhibitory concentration (IC50) was determined as 0.0845 µM against SARS-CoV-1 Mpro; 0.358 µM at MERS Mpro; 0.231 µM against SARS-CoV-2 Mpro; 0.0384 µM on HCoV-HKU1 Mpro; 0.0977 µM at HCoV-NL63 Mpro; 0.0563 µM on HCoV-229E Mpro. The same compound displayed an IC50 against HCoV-OC43 Mpro of 0.112 µM.
As to `Cc1cc(Cl)cc2cc(C(=O)N3C[C@H]4[C@@H]([C@H]3C(=O)N[C@H](C=O)C[C@@H]3CCNC3=O)C4(C)C)[nH]c12` [Compound 69, (1R,2S,5S)-3-(5-Chloro-7-methyl-1H-indole-2-carbonyl)-6,6-dimethyl-N—((S)-1-oxo-3-((S)-2-oxopyrrolidin-3-yl)propan-2-yl)-3-azabicyclo[3.1.0]hexane-2-carboxamide], the IC50 came to 0.0488 µM against SARS-CoV-1 Mpro; 0.476 µM against MERS Mpro; 0.0292 µM against SARS-CoV-2 Mpro; 0.0326 µM against HCoV-HKU1 Mpro; 0.0807 µM against HCoV-NL63 Mpro; 0.0505 µM against HCoV-229E Mpro. The IC50 on HCoV-OC43 Mpro turned out to be 0.0798 µM.
As to `O=C[C@H](C[C@@H]1CCNC1=O)NC(=O)[C@@H]1C[C@@H](Cc2cccc(Cl)c2)CN1C(=O)c1cc2ccccc2[nH]1` [Compound 137, (2S,4R)-4-(3-Chlorobenzyl)-1-(1H-indole-2-carbonyl)-N—((S)-1-oxo-3-((S)-2-oxopyrrolidin-3-yl)propan-2-yl)pyrrolidine-2-carboxamide], the half-maximal inhibitory concentration (IC50) against SARS-CoV-1 Mpro was found to be 1.52 µM; against MERS Mpro, 36.3 µM; on SARS-CoV-2 Mpro, 0.478 µM; on HCoV-HKU1 Mpro it was 0.262 µM; on HCoV-NL63 Mpro, 6.56 µM; against HCoV-229E Mpro, 1.26 µM. The compound also gave an IC50 against HCoV-OC43 Mpro of 1.42 µM.
For `O=C[C@H](C[C@@H]1CCNC1=O)NC(=O)[C@@H]1C[C@@H]2CCCC[C@@H]2N1C(=O)c1cc2ccccc2[nH]1` [Compound 113, (2S,3aS,7aS)-1-(1H-Indole-2-carbonyl)-N—((S)-1-oxo-3-((S)-2-oxopyrrolidin-3-yl)propan-2-yl)octahydro-1H-indole-2-carboxamide], the half-inhibitory concentration (IC50) on SARS-CoV-1 Mpro amounted to 0.339 µM; on MERS Mpro, 0.581 µM; against SARS-CoV-2 Mpro it was 0.0916 µM; on HCoV-HKU1 Mpro it was 0.0284 µM; at HCoV-NL63 Mpro it was 0.0357 µM; at HCoV-229E Mpro, 0.0332 µM. The IC50 against HCoV-OC43 Mpro stood at 0.0793 µM.

For the origin of these results see patent US20260355212A1 (priority 2022, published 2026).
